# Assay results published in publication PMC12057363 (Antimicrobial Agents and Chemotherapy, 2025).
# Where “and” joins values, the source holds several entries; their conditions need not be identical. Equal entries are not always repeated. Where two headings read alike, the source gives them in different places.
# Tests used:
# YFV [1] = details: cited from earlier work
# YFV-17D [2] = assay: microbe, parasite or virus in culture; assay type: cell-based; details: Yellow fever virus; for EC90: read-out: Anti-YFV-17D activity Huh-7 EC90
# YFV-17D [3] = assay: microbe, parasite or virus in culture; assay type: cell-based; details: Yellow fever virus, Macrophage, 72 h; for EC50: read-out: Anti-YFV-17D activity MDM EC50; for EC90: read-out: Anti-YFV-17D activity MDM EC90
# YFV-17D [4] = assay: microbe, parasite or virus in culture; assay type: cell-based; details: Yellow fever virus, Huh-7, 72 h; for EC50: read-out: Anti-YFV-17D activity 3D spheroids EC50; for EC90: read-out: Anti-YFV-17D activity 3D spheroids EC90
# YFV-17D [5] = assay: microbe, parasite or virus in culture; assay type: cell-based; details: Yellow fever virus, Huh-7, 72 h; for EC50: read-out: Anti-YFV-17D EC50 (reduction in infectious virus); for EC90: read-out: Anti-YFV-17D EC90 (reduction in infectious virus)
# YFV-DakH1279 = assay: microbe, parasite or virus in culture; assay type: cell-based, Yellow fever virus; details: for EC50 / EC90: Yellow fever virus, Huh-7, 48 h; for EC50: read-out: Anti-YFV-DakH1279 EC50 (reduction in infectious virus); for EC90: read-out: Anti-YFV-DakH1279 EC90 (reduction in infectious virus)
# [6] = test system: clinical YFV isolate (WT306); details: mouse, in vivo, 10 mg/kg
# YFV-17DD [7] = details: mouse, in vivo
# Huh-7 cells = assay: cells; details: Homo sapiens, Huh-7, 336 h
# dengue virus (DENV) = details: read-out: EC50 against dengue virus; cited from earlier work
# [8] = test system: Japanese encephalitis virus (JEV); details: read-out: EC50 against Japanese encephalitis virus; cited from earlier work
# Zika virus (ZIKV) = details: read-out: EC50 against Zika virus; cited from earlier work
# HCV = details: read-out: EC50 against HCV; cited from earlier work
# in vitro [9] = details: African green monkey
# cell lines = details: cited from earlier work
# [10] = rat, in vivo; cited from earlier work
# YFV [11] = details: mouse, in vivo; cited from earlier work
# in vitro [12] = details: human
# in vitro [13] = details: human; remark: listed apart in the source
# in vitro [14] = details: human; remark: listed apart in the source
# YFV-17DD [15] = details: mouse, in vivo; cited from earlier work
# [16] = Huh-7, 72 h, read-out: Anti-YFV-17D activity Huh-7 EC50
# [17] = read-out: Mitotoxicity (Huh-7) IC50 MtDNA
# [18] = read-out: Mitotoxicity (Huh-7) IC50 nDNA
Structure (SMILES),EC50 (YFV-17D [2]; [16]) [nM],"EC90 (YFV-17D [2]; Huh-7, 72 h) [nM]",EC50 (YFV-17D [3]) [nM],EC90 (YFV-17D [3]) [nM],EC50 (YFV-17D [4]) [nM],EC90 (YFV-17D [4]) [nM],EC50 (YFV-17D [5]) [nM],EC90 (YFV-17D [5]) [nM],EC50 (YFV-DakH1279) [nM],EC90 (YFV-DakH1279) [nM],IC50 (Huh-7 cells; [17]) [nM],IC50 (Huh-7 cells; [18]) [nM],CC50 (in vitro [9]) [nM],cytotoxicity CC50 (cell lines),"Average infectious YFV yield, YFV-DakH1279 (YFV-DakH1279)",further results
Nc1ncnc2c([C@@H]3N[C@H](CO)[C@@H](O)[C@H]3O)c[nH]c12 [Galidesivir],,,,,,,,,,,,,,,,activity against YFV in vitro (YFV [1]): active
"C[C@@]1(O)[C@H](O)[C@@H](CO)O[C@H]1n1cc(F)c2c(N)ncnc21 [DFA, 7-deaza-7-fluoro-2′-C-methyladenosine]",900 ± 600,3400 ± 500,500 ± 400,1000 ± 600,5500 ± 1300,12600 ± 1900,800 ± 400,5600 ± 2600,2400 ± 1900,5000 ± 3100,> 50000,> 50000,92400 ± 8100,>100–>200,,"EC50 (YFV-17D [2]; Huh-7, read-out: EC50 against YFV-17D in vitro (summary range)): 900 to 5500 nM; ALT levels [6]: markedly reduced; YFV-mediated liver pathology (histology) [6]: significantly reduced; clinical severity (clinical disease score) [6]: modest but significant decrease; leukocytosis (total circulating leukocytes) [6]: significantly reduced; total portion of granulocytes in the blood [6]: significantly reduced; virus replication in the liver, infectious virions (plaque assay) [6]: significantly reduced; virus replication in the liver, total genome copy numbers [6]: significantly reduced; body weight (YFV-17DD [7]): no significant changes; inflammatory cell infiltration, infiltrate score (YFV-17DD [7]): ~ 1; total white blood cell numbers (YFV-17DD [7]): no significant changes; ALT levels (YFV-17DD [7]; 10 mg/kg): significantly reduced; YFV-17DD replication in the livers (qRT-PCR) (YFV-17DD [7]; 10 mg/kg): significantly reduced; liver pathology by histopathological analysis (YFV-17DD [7]; 10 mg/kg): reduced liver pathology; overall health status (YFV-17DD [7]; 10 mg/kg): no notable impact; EC50 (dengue virus (DENV)): 500 to 1000 nM; EC50 [8]: 900 nM; EC50 (Zika virus (ZIKV)): 3700 nM; EC50 (HCV): 70 to 900 nM; pharmacokinetic profile [10]: favorable pharmacokinetic profile"
CC(C)OC(=O)[C@H](C)N[P@](=O)(OC[C@H]1O[C@@H](n2ccc(=O)[nH]c2=O)[C@](C)(F)[C@@H]1O)Oc1ccccc1 [Sofosbuvir],600 ± 600,3000 ± 2500,1000 ± 700,2400 ± 1500,,,300 ± 100,1200 ± 100,1600 ± 1300,3100 ± 2400,> 50000,> 50000,> 100000,,2.7x10^4 ± 1.1x10^4 FFU/mL and 1.4x10^4 ± 1.2x10^4 FFU/mL and 2.2x10^3 ± 1.2x10^3 FFU/mL and 1.8x10^2 ± 1.2x10^2 FFU/mL,efficacy against YFV in mice (YFV [11]): little efficacy; CC50 (in vitro [12]): > 100000 nM; CC50 (in vitro [13]): 85600 ± 11600 nM; CC50 (in vitro [14]): > 100000 nM
CC(C)OC(=O)[C@H](C)N[P@](=O)(OC[C@H]1O[C@@H](n2ccc(=O)[nH]c2=O)[C@@](F)(Br)[C@@H]1O)Oc1ccccc1 [Compound 2-FBU],900 ± 800,8100 ± 3500,200 ± 100,3000 ± 1600,2200 ± 200,7700 ± 300,1200 ± 500,8600 ± 3100,1700 ± 1100,3500 ± 2300,40900,> 50000,> 100000,68.9–>100,4.0x10^4 ± 6.1x10^3 FFU/mL and 2.4x10^4 ± 9.8x10^3 FFU/mL and 3.3x10^3 ± 2.4x10^3 FFU/mL and 2.8x10^2 ± 1.7x10^2 FFU/mL,log reduction in YFV genome copies in the liver tissue (YFV-17DD [15]): 0.7 log; percent reduction in YFV genome copies in the liver tissue (YFV-17DD [15]): ~ 80%
